Measured values: ChEMBL document CHEMBL1151020, “Synthesis of neoeudistomin analogsAs potential filaricides” (1995)

What was measured:
Format in all cases: functional
Settings in all cases: route intraperitoneal
[1] = Macrofilaricidal activity (maf) against Acanthocheilonema viteae in Mastomys natalensis at a dose of 30 mg/kg for 5 days by ip administration; Inactive
[2] = Antifilarial (Microfilariae) activity (mf) against Litomosoides carinii in cotton rats at a dose of 30 mg/kg for 5 days by ip administration; Inactive
[3] = Macrofilaricidal activity (maf) against Litomosoides carinii in cotton rats at a dose of 30 mg/kg for 5 days by ip administration; Inactive
[4] = test system: Rattus norvegicus; assay: Antifilarial (Microfilariae) activity (mf) against Litomosoides carinii in cotton rats at a dose of 30 mg/kg for 5 days by ip administration
[5] = test system: Rattus norvegicus; assay: Antifilarial (Microfilariae) activity (mf) against Acanthocheilonema viteae in Mastomys natalensis at a dose of 350 mg/kg for 5 days by ip administration

| Compound | Activity [1] | Activity [2] | Activity [3] | Activity [4] | Activity [5] |
| --- | --- | --- | --- | --- | --- |
| c1coc(-c2nccc3c2[nH]c2ccccc23)c1 | 0 | 0 |  |  |  |
| c1csc(C2NCCc3c2[nH]c2ccccc32)c1 (stereo unspecified) |  | 0 | 0 |  |  |
| c1csc(-c2nccc3c2[nH]c2ccccc23)c1 | 0 | 0 | 0 |  |  |
| c1c[nH]c(-c2nccc3c2[nH]c2ccccc23)c1 | 0 |  |  | 73 |  |
| c1ccc2c3c([nH]c2c1)C(c1ccsc1)NCC3 (stereo unspecified) |  | 0 | 0 |  |  |
| c1coc(C2NCCc3c2[nH]c2ccccc32)c1 (stereo unspecified) |  | 0 | 0 |  |  |
| CCN(CC)C(=O)N1CCN(C)CC1.O=C(O)CC(O)(CC(=O)O)C(=O)O [DIETHYLCARBAMAZINE CITRATE] | 0 |  | 0 |  | >90 |
